Key:
Type in all cases: physicochemical
[1] = Supersaturation / desupersaturation of DMSO solution in FaSSIF-V1; settings: FaSSIF-V1, 37° C.
Method: FIG. 1 is a an illustration of Compound (I) desupersaturation profiles in FaSSIF-V1 when added as DMSO solution at drug loads from 100 to 2000 ppmw
The supersaturation potential of Compound (1) was studied by mixing drug dissolved in 1 mL DMSO into 99 mL FaSSIF-V1 stirred at 37° C. (FIG. 1). At higher drug loads of 500, 1000 or 2000 ppmw (or […]) Compound (1) precipitated practically instantaneously and attained a constant steady state concentration of approx. 20 μg/mL or below within 5 minutes.. At the 90 min final sampling the solids were confirmed to be crystalline Compound (1) by XRPD. At lower drug loads, supersaturation was maintained longer, e.g. approx. 110 μg/mL drug dissolved at 5 min at 200 ppmw drug load and approx. 70 μg/mL drug dissolved till 20 min at 100 ppmw drug load. Situation after desupersaturation was similar as described for higher drug loads.

[2] = Hot melt extrusion (HME) thermal stability; settings: extrusion of compound-polymer mixture at temperatures in excess of 160° C.
Source text: A holt melt extrusion (HME) approach was also attempted.

[3] = Initial stability evaluation of lyophilized solid dispersions (mDSC, UPLC); settings: initial purity of Compound (I) 99.3%
Method: The following example illustrates the initial feasibility assessment of an amorphous solid dispersion formulation. An amorphous solid dispersion (ASD) was initially evaluated as a potential formulation for Compound (1). Solid dispersion screening was performed by lyophilization of solid Compound (1) with a polymer. Miscibility trials of Compound (1) were performed with Kollidon® VA64, HPMC-AS-LF, Eudragit® L100-55, and HPMC 603, by conducting a DSC measurement of the lyophilized material to determine if the material was amorphous or crystalline. […] Kollidon® VA64 at both 50% and 40% drug loading recrystallized after 5 weeks. HPMC-AS-LF and Eudragit® L100-55 remained amorphous under stressed conditions. However, HPMC-AS-LF and Eudragit® L100-55 both have significant impurities after 5 weeks until stressed conditions, according to UPLC analysis.

**Q.** For `O=C1CC2(CCN(C(=O)NCc3ccc(F)cc3)CC2)Nc2ccc(F)cc21` [Compound (I), 6′-fluoro-N-(4-fluorobenzyl)-4′-oxo-3′,4′-dihydro-1′H-spiro[piperidine-4,2′-quinoline]-1-carboxamide], which drug dissolved ([1]; at 5 min at 200 ppmw drug load) is on record?
**A.** The drug dissolved was “approx. 110 μg/mL”.

**Q.** What about the steady state concentration ([1]; drug loads of 500, 1000 or 2000 ppmw, within 5 minutes) of the same compound?
**A.** Its steady state concentration is ≤ 20 µg/mL.

**Q.** And the supersaturation potential ([1]; overall)?
**A.** Its supersaturation potential is “rather poorly supersaturating”.

**Q.** And the drug dissolved ([1]; till 20 min at 100 ppmw drug load)?
**A.** The drug dissolved was “approx. 70 μg/mL”.

**Q.** What about the “stability on hot melt extrusion” value [2] of the same compound?
**A.** Its value is “thermal degradation”.

**Q.** What about the “UPLC (%)” value ([3]; 3 weeks 50° C./75% RH) of the same compound?
**A.** Its value is 99.09%.

**Q.** And the “UPLC (%)” value ([3]; 5 weeks 50° C./75% RH)?
**A.** Its value is 99.05%.
